PubChem BioAssay (NCI)
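Dose response: 5 concentrations. Exposure: 48 h. Format: 96-well plates. Endpoint: linear interpolation; highest concentration if not reached. TGI denotes the concentration required for complete inhibition of growth.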

Test system: UACC-62 melanoma
Test: growth of human tumour cells (NCI), 48 h

SMILES | TGI
COc1ccccc1N1C(=O)C2c3[nH]c4ccccc4c3C3CCC(C(C)(C)C)CC3C2C1=O (stereo not drawn) | > 100 µM
O=C1C=CC(=O)c2c1ccc1c3ccccc3n(CCCCCCCCCCCCn3c4ccccc4c4ccc5c(c43)C(=O)C=CC5=O)c21 | > 100 µM
CC1(C)OC(=O)N(c2ccccc2)C12C=Cc1cc([N+](=O)[O-])cc([N+](=O)[O-])c1O2 (stereo not drawn) | > 100 µM
C=CCN1C[C@H](C)N([C@H](c2ccc(C(=O)NC(CC)CC)cc2)c2cccc(OC)c2)C[C@H]1C | 51.1 µM
CC(C)CCS(=O)(=O)OCCCCOS(=O)(=O)CCC(C)C | > 100 µM
O=C1/C(=C\c2ccccc2)C(NC2CCCCC2)c2ccccc21 (stereo not drawn) | 6.2 µM

Test system: MOLT-4 leukemia
Test: growth of human tumour cells (NCI), 48 h

SMILES | TGI
COc1ccccc1N1C(=O)C2c3[nH]c4ccccc4c3C3CCC(C(C)(C)C)CC3C2C1=O (stereo not drawn) | > 100 µM
O=C1C=CC(=O)c2c1ccc1c3ccccc3n(CCCCCCCCCCCCn3c4ccccc4c4ccc5c(c43)C(=O)C=CC5=O)c21 | > 90.5 µM
CC1(C)OC(=O)N(c2ccccc2)C12C=Cc1cc([N+](=O)[O-])cc([N+](=O)[O-])c1O2 (stereo not drawn) | > 100 µM
C=CCN1C[C@H](C)N([C@H](c2ccc(C(=O)NC(CC)CC)cc2)c2cccc(OC)c2)C[C@H]1C | > 100 µM
CC(C)CCS(=O)(=O)OCCCCOS(=O)(=O)CCC(C)C | > 100 µM
O=C1/C(=C\c2ccccc2)C(NC2CCCCC2)c2ccccc21 (stereo not drawn) | 3.02 µM

Test system: SK-MEL-28 melanoma
Test: growth of human tumour cells (NCI), 48 h

SMILES | TGI
Cc1c(C(=O)CC(=O)C(=O)Nc2ccccc2C(F)(F)F)[n+](=O)c2ccccc2n1[O-] | 92.1 µM
COc1ccccc1N1C(=O)C2c3[nH]c4ccccc4c3C3CCC(C(C)(C)C)CC3C2C1=O (stereo not drawn) | > 100 µM
O=C1C=CC(=O)c2c1ccc1c3ccccc3n(CCCCCCCCCCCCn3c4ccccc4c4ccc5c(c43)C(=O)C=CC5=O)c21 | > 100 µM
CC1(C)OC(=O)N(c2ccccc2)C12C=Cc1cc([N+](=O)[O-])cc([N+](=O)[O-])c1O2 (stereo not drawn) | > 100 µM
CC(C)CCS(=O)(=O)OCCCCOS(=O)(=O)CCC(C)C | > 100 µM
O=C1/C(=C\c2ccccc2)C(NC2CCCCC2)c2ccccc21 (stereo not drawn) | 6.06 µM

Test system: OVCAR-3 ovarian
Test: growth of human tumour cells (NCI), 48 h

SMILES | TGI
Cc1c(C(=O)CC(=O)C(=O)Nc2ccccc2C(F)(F)F)[n+](=O)c2ccccc2n1[O-] | 8.37 µM
O=C1C=CC(=O)c2c1ccc1c3ccccc3n(CCCCCCCCCCCCn3c4ccccc4c4ccc5c(c43)C(=O)C=CC5=O)c21 | > 100 µM
CC1(C)OC(=O)N(c2ccccc2)C12C=Cc1cc([N+](=O)[O-])cc([N+](=O)[O-])c1O2 (stereo not drawn) | > 100 µM
C=CCN1C[C@H](C)N([C@H](c2ccc(C(=O)NC(CC)CC)cc2)c2cccc(OC)c2)C[C@H]1C | > 100 µM
CC(C)CCS(=O)(=O)OCCCCOS(=O)(=O)CCC(C)C | 29.9 µM
O=C1/C(=C\c2ccccc2)C(NC2CCCCC2)c2ccccc21 (stereo not drawn) | 2.51 µM

Test system: OVCAR-4 ovarian
Test: growth of human tumour cells (NCI), 48 h

SMILES | TGI
Cc1c(C(=O)CC(=O)C(=O)Nc2ccccc2C(F)(F)F)[n+](=O)c2ccccc2n1[O-] | 42 µM
COc1ccccc1N1C(=O)C2c3[nH]c4ccccc4c3C3CCC(C(C)(C)C)CC3C2C1=O (stereo not drawn) | > 100 µM
O=C1C=CC(=O)c2c1ccc1c3ccccc3n(CCCCCCCCCCCCn3c4ccccc4c4ccc5c(c43)C(=O)C=CC5=O)c21 | > 100 µM
CC1(C)OC(=O)N(c2ccccc2)C12C=Cc1cc([N+](=O)[O-])cc([N+](=O)[O-])c1O2 (stereo not drawn) | > 100 µM
C=CCN1C[C@H](C)N([C@H](c2ccc(C(=O)NC(CC)CC)cc2)c2cccc(OC)c2)C[C@H]1C | > 100 µM
O=C1/C(=C\c2ccccc2)C(NC2CCCCC2)c2ccccc21 (stereo not drawn) | 3.93 µM

Test system: SR leukemia
Test: growth of human tumour cells (NCI), 48 h

SMILES | TGI
Cc1c(C(=O)CC(=O)C(=O)Nc2ccccc2C(F)(F)F)[n+](=O)c2ccccc2n1[O-] | 26.6 µM
COc1ccccc1N1C(=O)C2c3[nH]c4ccccc4c3C3CCC(C(C)(C)C)CC3C2C1=O (stereo not drawn) | > 100 µM
O=C1C=CC(=O)c2c1ccc1c3ccccc3n(CCCCCCCCCCCCn3c4ccccc4c4ccc5c(c43)C(=O)C=CC5=O)c21 | > 100 µM
CC1(C)OC(=O)N(c2ccccc2)C12C=Cc1cc([N+](=O)[O-])cc([N+](=O)[O-])c1O2 (stereo not drawn) | > 100 µM
C=CCN1C[C@H](C)N([C@H](c2ccc(C(=O)NC(CC)CC)cc2)c2cccc(OC)c2)C[C@H]1C | 44.4 µM
CC(C)CCS(=O)(=O)OCCCCOS(=O)(=O)CCC(C)C | > 100 µM
O=C1/C(=C\c2ccccc2)C(NC2CCCCC2)c2ccccc21 (stereo not drawn) | 0.473 µM

Test system: NCI-H23 lung
Test: growth of human tumour cells (NCI), 48 h

SMILES | TGI
Cc1c(C(=O)CC(=O)C(=O)Nc2ccccc2C(F)(F)F)[n+](=O)c2ccccc2n1[O-] | 44.3 µM
COc1ccccc1N1C(=O)C2c3[nH]c4ccccc4c3C3CCC(C(C)(C)C)CC3C2C1=O (stereo not drawn) | > 100 µM
O=C1C=CC(=O)c2c1ccc1c3ccccc3n(CCCCCCCCCCCCn3c4ccccc4c4ccc5c(c43)C(=O)C=CC5=O)c21 | > 100 µM
CC1(C)OC(=O)N(c2ccccc2)C12C=Cc1cc([N+](=O)[O-])cc([N+](=O)[O-])c1O2 (stereo not drawn) | > 100 µM
C=CCN1C[C@H](C)N([C@H](c2ccc(C(=O)NC(CC)CC)cc2)c2cccc(OC)c2)C[C@H]1C | > 100 µM
CC(C)CCS(=O)(=O)OCCCCOS(=O)(=O)CCC(C)C | > 100 µM
O=C1/C(=C\c2ccccc2)C(NC2CCCCC2)c2ccccc21 (stereo not drawn) | 2.28 µM

Test system: DLD-1 colon
Test: growth of human tumour cells (NCI), 48 h

SMILES | TGI
COc1ccccc1N1C(=O)C2c3[nH]c4ccccc4c3C3CCC(C(C)(C)C)CC3C2C1=O (stereo not drawn) | > 100 µM
CC(C)CCS(=O)(=O)OCCCCOS(=O)(=O)CCC(C)C | > 100 µM

Test system: T-47D breast
Test: growth of human tumour cells (NCI), 48 h

SMILES | TGI
O=C1C=CC(=O)c2c1ccc1c3ccccc3n(CCCCCCCCCCCCn3c4ccccc4c4ccc5c(c43)C(=O)C=CC5=O)c21 | > 100 µM
CC1(C)OC(=O)N(c2ccccc2)C12C=Cc1cc([N+](=O)[O-])cc([N+](=O)[O-])c1O2 (stereo not drawn) | > 100 µM
